21 compounds from US20230399312A1, “SUBSTITUTED PYRIMIDINES AND METHODS OF USE” (THERAVANCE BIOPHARMA R&D IP, LLC, priority 2020, published 2023) can be followed below.

Bounds are passed on as bounds.

Experiment [1] concerns the target T1, recombinant human ALK5 (TGF-βR1) protein (Homo sapiens, UniProt P36897).
T1 construct: purchased Life Technologies PR9075A
T1 sequence (P36897 34-503): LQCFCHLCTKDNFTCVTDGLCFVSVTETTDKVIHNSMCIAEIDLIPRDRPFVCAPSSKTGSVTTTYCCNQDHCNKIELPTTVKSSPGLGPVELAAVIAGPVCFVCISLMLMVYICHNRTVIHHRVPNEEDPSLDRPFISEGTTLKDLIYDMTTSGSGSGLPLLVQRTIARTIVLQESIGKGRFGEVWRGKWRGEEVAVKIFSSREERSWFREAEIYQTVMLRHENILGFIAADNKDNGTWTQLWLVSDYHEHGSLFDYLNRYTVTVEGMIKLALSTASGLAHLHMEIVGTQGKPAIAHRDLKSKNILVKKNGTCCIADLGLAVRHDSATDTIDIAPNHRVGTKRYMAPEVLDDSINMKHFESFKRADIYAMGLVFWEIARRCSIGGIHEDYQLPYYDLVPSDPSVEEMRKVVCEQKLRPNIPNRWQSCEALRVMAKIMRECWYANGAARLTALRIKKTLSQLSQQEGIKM
The experiment in a line: Biochemical ALK5 (TGF-βR1) assay to measure pKi (LANCE Ultra ULight kinase assay). To be noted: apparent pKi, converted from pIC50 by Cheng-Prusoff. Put shortly:
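Dose-response series of each compound were preincubated with the kinase for 60 minutes at room temperature. Phosphorylation proceeded for 60 minutes at 37 °C after ATP addition, was quenched with EDTA, and was detected with a europium anti-phospho-Thr1342 antibody by TR-FRET; pKi was calculated from pIC50.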

In experiment [2] the test system is TGF-β-stimulated SMAD3 phosphorylation in BEAS-2B cells. Nature of the experiment: Cellular ALK5 potency assay, inhibition of TGF-β stimulated pSMAD3 formation in BEAS-2B cells. The format is cell-based. To be noted: Homo sapiens, pSMAD3, TGF-β 10 ng/mL, read-out: BEAS2B pIC50 (converted). Put shortly: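 Read-out is AlphaLISA detection of phospho-SMAD3 in lysates of BEAS-2B human lung epithelial cells. Cells are exposed to compound for 1 hour, then to 10 ng/mL TGF-β (final) for 30 minutes. Values are pIC50 from concentration–response curves.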

Consider `Cc1cccc(-c2nccc(Nc3ccnc(Nc4ccc(N5CCCNCC5)cc4)n3)n2)n1` [Compound 196, N2-[4-(1,4-diazepan-1-yl)phenyl]-N4-[2-(6-methyl-2-pyridyl)pyrimidin-4-yl]pyrimidine-2,4-diamine], for which, in experiment [1], the Ki is 0.0398 to 0.316 nM. In addition, the IC50 in experiment [2] is 25.1 to 158 nM.

Consider `Cc1cccc(-c2nccc(Nc3ccnc(Nc4ccc(C(=O)OC5CCNCC5)cc4)n3)n2)n1` [Compound 147, 4-piperidyl 4-[[4-[[2-(6-methyl-2-pyridyl)pyrimidin-4-yl]amino]pyrimidin-2-yl]amino]benzoate], for which the Ki in experiment [1] was 0.0398 to 0.316 nM. In addition, in experiment [2], the IC50 was 25.1 to 158 nM.

With `Cc1cccc(-c2nccc(Nc3ccnc(Nc4ccc(NS(=O)(=O)CCN)cc4)n3)n2)n1` [Compound 363, 2-amino-N-[4-[[4-[[2-(6-methyl-2-pyridyl)pyrimidin-4-yl]amino]pyrimidin-2-yl]amino]phenyl] ethanesulfonamide], the Ki in experiment [1] was 0.398 to 3.16 nM. Further, the IC50 in experiment [2] was 200 to 1260 nM.

On to `Cc1cccc(-c2nccc(Nc3ccnc(Nc4ccc(N5CCSCC5)cc4)n3)n2)n1` [Compound 8, N4-[2-(6-methyl-2-pyridyl)pyrimidin-4-yl]-N2-(4-thiomorpholinophenyl) pyrimidine-2,4-diamine], for which, in experiment [1], the Ki is 0.0398 to 0.316 nM. Moreover, the IC50 in experiment [2] was 25.1 to 158 nM.

For the compound `Cc1cccc(-c2nccc(Nc3ccnc(Nc4ccc(CN5CCN[C@H](CO)C5)cc4)n3)n2)n1` [Compound 463, [(2S)-4-[[4-[[4-[[2-(6-methyl-2-pyridyl)pyrimidin-4-yl]amino]pyrimidin-2-yl]amino]phenyl]methyl]piperazin-2-yl]methanol], the Ki in experiment [1] is 0.0398 to 0.316 nM. In addition, the IC50 in experiment [2] was 25.1 to 158 nM.

With `CNC1CCN(S(=O)(=O)c2ccc(Nc3nccc(Nc4ccnc(-c5cccc(C)n5)n4)n3)cc2)CC1` [Compound 352, N2-[4-[[4-(methylamino)-1-piperidyl]sulfonyl]phenyl]-N4-[2-(6-methyl-2-pyridyl)pyrimidin-4-yl]pyrimidine-2,4-diamine], the Ki in experiment [1] was 0.0398 to 0.316 nM. In addition, the IC50 in experiment [2] was 25.1 to 158 nM.

With `Cc1cccc(-c2nc(Nc3ccnc(Nc4ccc(C(=O)N5CCNCC5)cc4)n3)c3cccn3n2)n1` [Compound 1038, [4-[[4-[[2-(6-methyl-2-pyridyl)pyrrolo[2,1-f][1,2,4]triazin-4-yl]amino]pyrimidin-2-yl]amino]phenyl]-piperazin-1-yl-methanone], the Ki in experiment [1] is 0.0398 to 0.316 nM. In addition, the IC50 in experiment [2] was 25.1 to 158 nM.

With `Fc1ccc(Cl)cc1-c1nccc(Nc2ccnc(Nc3ccc(CN4CCOCC4)cc3)n2)n1` [Compound 165, N4-[2-(5-chloro-2-fluoro-phenyl)pyrimidin-4-yl]-N2-[4-(morpholinomethyl)phenyl] pyrimidine-2,4-diamine], the Ki in experiment [1] is 3.98 to 31.6 nM. In addition, the IC50 in experiment [2] is 25.1 to 158 nM.

With `Cc1cccc(-c2nccc(Nc3ccnc(Nc4cccc(CN5CCNCC5)c4)n3)n2)n1` [Compound 362, N4-[2-(6-methyl-2-pyridyl)pyrimidin-4-yl]-N2-[3-(piperazin-1-ylmethyl)phenyl]pyrimidine-2,4-diamine], in experiment [1], the Ki is 0.0398 to 0.316 nM. Besides, in experiment [2], the IC50 is 25.1 to 158 nM.

Regarding `Cc1cccc(-c2nccc(Nc3ccnc(Nc4ccc(Cl)c(N)c4)n3)n2)n1` [Compound 126, N2-(3-amino-4-chloro-phenyl)-N4-[2-(6-methyl-2-pyridyl)pyrimidin-4-yl]pyrimidine-2,4-diamine], in experiment [1], the Ki is 0.398 to 3.16 nM. The IC50 in experiment [2] was not above 20 nM.

Regarding `Cc1cccc(-c2nccc(Nc3ccnc(Nc4cccc(NC(=O)C5CCN(C6CCOCC6)CC5)c4)n3)n2)n1` [Compound 357, N-[3-[[4-[[2-(6-methyl-2-pyridyl)pyrimidin-4-yl]amino]pyrimidin-2-yl]amino]phenyl]-1-tetrahydropyran-4-yl-piperidine-4-carboxamide], the Ki in experiment [1] is 0.0398 to 0.316 nM. The IC50 in experiment [2] was 25.1 to 158 nM.

For `Cc1cccc(-c2nccc(Nc3ccnc(Nc4ccc(C(=O)O[C@H]5CCN(C)C5)cc4)n3)n2)n1` [Compound 51, [(3S)-1-methylpyrrolidin-3-yl] 4-[[4-[[2-(6-methyl-2-pyridyl)pyrimidin-4-yl]amino]pyrimidin-2-yl]amino]benzoate], in experiment [1], the Ki is 0.0398 to 0.316 nM. Also, the IC50 in experiment [2] was 25.1 to 158 nM.

Regarding `Cc1cccc(-c2nccc(Nc3ccnc(Nc4ccc(N5CCC(C(=O)OC6CCNC6)CC5)cc4)n3)n2)n1` (stereo not drawn) [Compound 101, pyrrolidin-3-yl 1-[4-[[4-[[2-(6-methyl-2-pyridyl)pyrimidin-4-yl]amino]pyrimidin-2-yl]amino]phenyl]piperidine-4-carboxylate], in experiment [1], the Ki is 0.0398 to 0.316 nM. For the same compound, the IC50 in experiment [2] was 25.1 to 158 nM.

As for `Cc1cccc(-c2nccc(Nc3ccnc(Nc4ccc(CN5CCN(CCO)CC5)cc4)n3)n2)n1` [Compound 301, 2-[4-[[4-[[4-[[2-(6-methyl-2-pyridyl)pyrimidin-4-yl]amino]pyrimidin-2-yl]amino]phenyl]methyl]piperazin-1-yl]ethanol], the Ki in experiment [1] is 0.0398 to 0.316 nM. Moreover, in experiment [2], the IC50 is 25.1 to 158 nM.

As for `Cc1cccc(-c2nccc(Nc3ccnc(Nc4nc(C(=O)OCCN5CCNCC5)cs4)n3)n2)n1` [Compound 551, 2-piperazin-1-ylethyl 2-[[4-[[2-(6-methyl-2-pyridyl)pyrimidin-4-yl]amino]pyrimidin-2-yl]amino]thiazole-4-carboxylate], the Ki in experiment [1] was 0.398 to 3.16 nM. For the same compound, the IC50 in experiment [2] was 200 to 1260 nM.

For the compound `Cc1cccc(-c2nccc(Nc3ccnc(Nc4ccc(CN5CCNC(C)(C)C5)cc4)n3)n2)n1` [Compound 249, N2-[4-[(3,3-dimethylpiperazin-1-yl)methyl]phenyl]-N4-[2-(6-methyl-2-pyridyl)pyrimidin-4-yl]pyrimidine-2,4-diamine], the Ki in experiment [1] is 0.0398 to 0.316 nM. Moreover, in experiment [2], the IC50 is 25.1 to 158 nM.

On to `Cc1cccc(-c2nccc(Nc3ccnc(Nc4cc(C(=O)O)ccn4)n3)n2)n1` [Compound 636, 2-[[4-[[2-(6-methyl-2-pyridyl)pyrimidin-4-yl]amino]pyrimidin-2-yl]amino]pyridine-4-carboxylic acid], for which the Ki in experiment [1] is 3.98 to 31.6 nM. Moreover, the IC50 in experiment [2] is 1580 to 10000 nM.

`Cc1cccc(-c2nccc(Nc3ccnc(Nc4ccc(N5CCNCC5CC(=O)O)cc4)n3)n2)n1` (stereo not drawn) [Compound 31, 2-[1-[4-[[4-[[2-(6-methyl-2-pyridyl)pyrimidin-4-yl]amino]pyrimidin-2-yl]amino]phenyl]piperazin-2-yl]acetic acid]: the Ki in experiment [1] was 0.0398 to 0.316 nM. The IC50 in experiment [2] was 200 to 1260 nM.

With `Cc1cccc(-c2nccc(Nc3ccnc(Nc4ccc(NCCN)cc4)n3)n2)n1` [Compound 259, N2-[4-(2-aminoethylamino)phenyl]-N4-[2-(6-methyl-2-pyridyl)pyrimidin-4-yl]pyrimidine-2,4-diamine], the Ki in experiment [1] is 0.0398 to 0.316 nM. Moreover, in experiment [2], the IC50 was 25.1 to 158 nM.

Turning to `Cc1cccc(-c2nccc(Nc3ccnc(Nc4ccc(C5CNCCN5)cc4)n3)n2)n1` (stereo not drawn) [Compound 539, N4-[2-(6-methyl-2-pyridyl)pyrimidin-4-yl]-N2-(4-piperazin-2-ylphenyl)pyrimidine-2,4-diamine], the Ki in experiment [1] is not above 0.0316 nM. Further, the IC50 in experiment [2] is 25.1 to 158 nM.

In the case of `Cc1cccc(-c2nccc(Nc3ccnc(Nc4ccc(C)c(CO)c4)n3)n2)n1` [Compound 61, [2-methyl-5-[[4-[[2-(6-methyl-2-pyridyl)pyrimidin-4-yl]amino]pyrimidin-2-yl]amino]phenyl]methanol], in experiment [1], the Ki was 0.0398 to 0.316 nM. Besides, the IC50 in experiment [2] was 25.1 to 158 nM.
